How the values were obtained:
[1] = test system: KMS-12-PE; test: Inhibition of proliferation of KMS-12-PE cells; assay type: cell-based; details: Homo sapiens; Lymphoma cell line KMS-12-PE; read-out: IC50 against KMS-12-PE
Protocol: (§1) 1) CWR22RV1 cells were subcultured in cell culture medium, and the cells in good growth condition were seeded in a 96-well plate, 80 μL for each well, and the cell number in each well was 1500. The plate was incubated overnight in a 37° C., 5% CO2 cell incubator. 2) The drug was prepared as 30 mM stock solution with dimethyl sulfoxide (DMSO). Prior to use, the stock solution was diluted 3 times with DMSO, and then further diluted as 3-fold gradient to obtain 9 concentration gradients. Then, each concentration of compound was diluted 200 times with the culture solution (ensuring that the DMSO concentration in the culture system was 0.1%), and two replicate wells were set for each concentration. 20 μL of diluted compound solution was added to the cell culture well (with final concentrations of 10 μM, 3.3 μM. 1.1 μM . . . ), and the plate was gently shaken to mix. In addition, 3 negative control wells containing only cells and 3 blank control wells containing only culture medium were included (6 wells were each added 20 μL DMSO diluted 200 times with culture medium). 2. Result detection: (1) After culturing for 6 days, 10 μL CCK-8 was added to each well, and the plate was continually cultured in a 37° C., 5% CO2 cell incubator for 2.5 h. (2) The absorbance (OD value) was detected at 450 nm using a multifunctional microplate reader. (3) The data were analyzed by Dose-response-inhibition equation in the software GraphPad Prism6, and the IC50 value was obtained.
(§2) Using the same method as Experimental example 2, CWR22RV1 cells were replaced with tumor cells in Table 3, and the IC50 (nM) of the compound according to the present invention against the activity of these tumor cells was tested and calculated.

[2] = test system: KMS-20; test: Inhibition of proliferation of KMS-20 cells; assay type: cell-based; details: Multiple myeloma cell line KMS-20; read-out: IC50 against KMS-20
Protocol: as §1, §2

[3] = test system: OPM-2; test: Inhibition of proliferation of OPM-2 cells; assay type: cell-based; details: Homo sapiens; Multiple myeloma cell line OPM-2; read-out: IC50 against OPM-2
Protocol: as §1, §2

[4] = test system: MM.1R; test: Inhibition of proliferation of MM.1R cells; assay type: cell-based; details: Lymphoma cell line MM.1R; read-out: IC50 against MM.1R
Protocol: as §1, §2

[5] = test system: MOLM-16; test: Inhibition of proliferation of MOLM-16 cells; assay type: cell-based; details: MOLM16; Leukemia cell line MOLM-16; read-out: IC50 against MOLM-16
Protocol: as §1, §2

[6] = test system: TALL-1; test: Inhibition of proliferation of TALL-1 cells; assay type: cell-based; details: Homo sapiens; Leukemia cell line TALL-1; read-out: IC50 against TALL-1
Protocol: as §1, §2

[7] = test system: KARPAS-422; test: Inhibition of proliferation of KARPAS-422 cells; assay type: cell-based; details: Homo sapiens; Lymphoma cell line KARPAS-422; read-out: IC50 against KARPAS-422
Protocol: as §1, §2

[8] = test system: BT-474; test: Inhibition of proliferation of BT-474 cells; assay type: cell-based; details: Homo sapiens; Breast cancer cell line BT-474; read-out: IC50 against BT-474
Protocol: as §1, §2

[9] = test system: Z-138; test: Inhibition of proliferation of Z-138 cells; assay type: cell-based; details: Homo sapiens; Lymphoma cell line Z-138; read-out: IC50 against Z-138
Protocol: as §1, §2

[10] = biological target: T1, histone acetylase p300 (Homo sapiens, UniProt Q09472); test: Inhibitory activity on histone acetylase p300 (radioisotope FlashPlate); assay type: biochemical; details: enzyme 0.2 nM, peptide substrate 600 nM, [3H]-Ac-CoA 250 nM; read-out: IC50 against P300
T1 construct: purchased BPS
T1 sequence (Q09472 whole entry): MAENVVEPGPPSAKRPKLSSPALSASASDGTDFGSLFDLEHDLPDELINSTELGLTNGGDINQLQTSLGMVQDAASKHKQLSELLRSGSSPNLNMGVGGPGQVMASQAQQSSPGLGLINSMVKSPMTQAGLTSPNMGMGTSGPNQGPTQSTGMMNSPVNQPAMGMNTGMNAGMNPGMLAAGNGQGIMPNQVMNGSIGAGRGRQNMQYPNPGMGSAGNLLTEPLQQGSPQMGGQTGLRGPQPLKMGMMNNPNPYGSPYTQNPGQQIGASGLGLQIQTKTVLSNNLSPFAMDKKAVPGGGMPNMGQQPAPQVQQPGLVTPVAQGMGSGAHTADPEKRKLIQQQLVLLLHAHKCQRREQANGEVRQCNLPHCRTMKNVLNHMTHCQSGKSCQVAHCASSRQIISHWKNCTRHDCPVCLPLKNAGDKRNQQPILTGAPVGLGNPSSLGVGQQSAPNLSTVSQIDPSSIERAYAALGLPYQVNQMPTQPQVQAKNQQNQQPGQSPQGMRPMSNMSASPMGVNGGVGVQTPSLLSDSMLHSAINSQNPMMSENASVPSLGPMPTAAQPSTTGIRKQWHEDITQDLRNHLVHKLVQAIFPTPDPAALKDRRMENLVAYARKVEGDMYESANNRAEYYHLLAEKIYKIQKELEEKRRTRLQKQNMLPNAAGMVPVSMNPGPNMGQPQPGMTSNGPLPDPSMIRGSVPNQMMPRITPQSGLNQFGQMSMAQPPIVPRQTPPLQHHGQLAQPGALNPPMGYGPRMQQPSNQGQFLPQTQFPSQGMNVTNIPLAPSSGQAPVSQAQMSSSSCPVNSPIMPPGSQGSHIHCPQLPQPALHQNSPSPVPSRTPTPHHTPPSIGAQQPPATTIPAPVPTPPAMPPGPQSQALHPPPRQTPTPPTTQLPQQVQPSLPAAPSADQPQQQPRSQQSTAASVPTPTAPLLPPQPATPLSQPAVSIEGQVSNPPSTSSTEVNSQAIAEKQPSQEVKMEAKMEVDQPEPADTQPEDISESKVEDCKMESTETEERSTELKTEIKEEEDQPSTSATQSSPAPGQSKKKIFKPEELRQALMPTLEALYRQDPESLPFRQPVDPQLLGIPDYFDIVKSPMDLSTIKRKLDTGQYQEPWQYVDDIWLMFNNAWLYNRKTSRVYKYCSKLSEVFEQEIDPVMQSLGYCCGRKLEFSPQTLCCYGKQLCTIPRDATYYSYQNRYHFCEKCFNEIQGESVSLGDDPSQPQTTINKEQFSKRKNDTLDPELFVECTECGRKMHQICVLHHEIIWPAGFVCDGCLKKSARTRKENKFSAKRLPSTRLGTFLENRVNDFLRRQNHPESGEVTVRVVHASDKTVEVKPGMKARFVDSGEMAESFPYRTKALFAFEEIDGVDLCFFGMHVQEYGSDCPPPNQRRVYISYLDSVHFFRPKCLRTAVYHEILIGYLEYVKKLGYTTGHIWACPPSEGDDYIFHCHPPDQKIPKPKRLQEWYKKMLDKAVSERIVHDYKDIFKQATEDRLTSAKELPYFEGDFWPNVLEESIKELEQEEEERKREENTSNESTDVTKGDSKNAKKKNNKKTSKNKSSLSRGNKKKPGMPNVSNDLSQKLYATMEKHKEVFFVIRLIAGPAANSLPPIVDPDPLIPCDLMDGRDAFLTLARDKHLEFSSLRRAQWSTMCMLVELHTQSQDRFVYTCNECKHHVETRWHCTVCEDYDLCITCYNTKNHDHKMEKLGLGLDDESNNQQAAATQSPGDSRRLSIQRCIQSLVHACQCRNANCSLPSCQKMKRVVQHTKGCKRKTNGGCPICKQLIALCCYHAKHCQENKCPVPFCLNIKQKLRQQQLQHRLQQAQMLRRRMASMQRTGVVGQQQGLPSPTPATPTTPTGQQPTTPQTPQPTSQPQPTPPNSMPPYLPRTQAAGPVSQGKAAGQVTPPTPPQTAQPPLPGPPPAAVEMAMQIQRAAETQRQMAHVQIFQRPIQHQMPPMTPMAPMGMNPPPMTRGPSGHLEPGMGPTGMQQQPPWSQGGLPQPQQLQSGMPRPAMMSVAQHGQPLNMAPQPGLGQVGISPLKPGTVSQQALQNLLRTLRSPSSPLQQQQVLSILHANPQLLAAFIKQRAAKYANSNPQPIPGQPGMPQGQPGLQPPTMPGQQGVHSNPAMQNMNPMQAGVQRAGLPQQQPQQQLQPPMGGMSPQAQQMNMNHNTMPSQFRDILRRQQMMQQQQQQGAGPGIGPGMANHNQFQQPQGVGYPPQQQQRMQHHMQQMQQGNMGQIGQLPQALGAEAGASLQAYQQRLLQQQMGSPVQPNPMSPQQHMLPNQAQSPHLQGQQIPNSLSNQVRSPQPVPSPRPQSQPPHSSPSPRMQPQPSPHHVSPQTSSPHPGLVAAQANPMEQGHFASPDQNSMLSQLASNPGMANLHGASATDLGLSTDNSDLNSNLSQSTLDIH
Excerpt: Using the radioisotope FlashPlate technology, the half inhibitory concentration (IC50) of the compound according to the present invention was detected against histone acetylase p300 (purchased from BPS). […] Under the catalysis of histone acetylase p300, [3H]—Ac group in the isotope-labeled [3H]-Ac-CoA was transferred to the biotinylated histone polypeptide substrate (purchased from GL Biochem Ltd.), and then the biotinylated histone peptide substrate bound to the streptavidin on the FlashPlate board, so that the isotope was close enough to the FlashPlate board. Thus, the radiation energy of isotope could convert the scintillation fluid coated on the FlashPlate board into photons, that was able to be detected. Detailed procedures were as follows:
• 1× reaction buffer: 50 mM Tris-HCl, pH 7.5; 0.01% Tween-20 • Reaction stop solution: 750 μM Ac-CoA solution
Each test compound was dissolved into 10 mM with 100% DMSO, and then each compound was diluted to the desired concentration in Echo 384-well plate. […] 200 nl of 100% DMSO was transferred into the well as the negative control.
p300 was added to 1× reaction buffer to form a 2× enzyme solution (the final concentration of enzyme being 0.2 nM).
The peptide substrate and [3H]-Ac-CoA were added to the 1-fold reaction buffer, to form a 2-fold substrate solution (the final concentration of the substrate being 600 nM and 250 nM, respectively).
10 μl of 2-fold enzyme solution was added to the wells of 384-well reaction plate. […] The plate was centrifuged at 1000 rpm for 1 min and incubated at room temperature for 15 min.
10 μl of 2-fold substrate solution was added to each well of 384-well reaction plate. The plate was centrifuged at 1000 rpm for 1 min, and then reacted at 25° C. for 60 min.
10 μl of reaction stop solution was added to each well of 384-well reaction plate to stop the reaction. 25 μL solution was collected from each well of the test plate and transferred to Flashplate, that was placed at room temperature for 1 h. Then, Flashplate plate was washed three times with 0.1% Tween-20 solution.
4) Reading Data with MicroBeta 2
The data were copied from Microbeta 2. […] The maximum value is the conversion rate of the control DMSO, and the minimum value is the conversion rate of the control without enzyme activity.
The data were imported into Graph Pad Prism5, and the formula “log(inhibitor) vs. response−Variable slope” was used to perform curve fitting, to obtain the half inhibitory concentration (IC50).

[11] = test system: Pfeiffer; test: Inhibition of proliferation of Pfeiffer cells; assay type: cell-based; details: Homo sapiens; Lymphoma cell line Pfeiffer; read-out: IC50 against Pfeiffer
Protocol: as §1, §2

[12] = test system: MM.1S; test: Inhibition of proliferation of MM.1S cells; assay type: cell-based; details: Homo sapiens, MM1.S; Multiple myeloma cell line MM.1S; read-out: IC50 against MM.1S
Protocol: as §1, §2

[13] = test system: MDA-MB-453; test: Inhibition of proliferation of MDA-MB-453 cells; assay type: cell-based; details: Homo sapiens; Breast cancer cell line MDA-MB-453; read-out: IC50 against MDA-MB-453
Protocol: as §1, §2

[14] = test system: MLMA; test: Inhibition of proliferation of MLMA cells; assay type: cell-based; details: Lymphoma cell line MLMA; read-out: IC50 against MLMA
Protocol: as §1, §2

[15] = test system: EVSA-T; test: Inhibition of proliferation of EVSA-T cells; assay type: cell-based; details: Homo sapiens; Breast cancer cell line EVSA-T; read-out: IC50 against EVSA-T
Protocol: as §1, §2

SMILES | IC50 [1] [nM] | IC50 [2] [nM] | IC50 [3] [nM] | IC50 [4] [nM] | IC50 [5] [nM] | IC50 [6] [nM] | IC50 [7] [nM] | IC50 [8] [nM] | IC50 [9] [nM] | IC50 [10] [nM] | IC50 [11] [nM] | IC50 [12] [nM] | IC50 [13] [nM] | IC50 [14] [nM] | IC50 [15] [nM]
CNC(=O)Nc1ccc2c(c1)CC[C@@]21OC(=O)N(CC(=O)N2C(C)CC[C@H]2c2cc(F)c(F)c(F)c2)C1=O (stereo in doubt) [Example 205, 1-((R)-3′-(2-((2S,5R)-2-(3,4,5-trifluorophenyl)-5-methylpyrrolidin-1-yl)-2-oxoethyl)-2′,4′-dioxo-2,3-dihydrospiro[indene-1,5′-oxazolidine]-5-yl)-3-methylurea] | 500 to 2000 | ≤ 500 | ≤ 500 | ≤ 500 | ≤ 500 | ≤ 500 | ≤ 500 | ≤ 500 | ≤ 500 | 1.6 | ≤ 500 | 500 to 2000 | ≤ 500 | ≤ 500 | 500 to 2000
CNC(=O)Nc1ccc2c(c1)CC[C@@]21OC(=O)N(CC(=O)N2[C@@H](C)CC[C@H]2c2ccc(F)c(F)c2)C1=O [Example 201] | 500 to 2000 | ≤ 500 | ≤ 500 | ≤ 500 | ≤ 500 | ≤ 500 | ≤ 500 | ≤ 500 | ≤ 500 | 1.6 | ≤ 500 | 500 to 2000 | ≤ 500 | ≤ 500 | 500 to 2000
CNC(=O)Nc1cc2c(cc1F)[C@@]1(CC2)OC(=O)N(CC(=O)N2[C@@H](C)CC[C@H]2c2ccc(F)c(F)c2)C1=O [Example 389, 1-((R)-3′-(2-((2S,5S)-2-(3,4-difluorophenyl)-5-methylpyrrolidin-1-yl)-2-oxoethyl)-6-fluoro-2′,4′-dioxo-2,3-dihydrospiro[indene-1,5′-oxazolidine]-5-yl)-3-methylurea] | 500 to 2000 | ≤ 500 | ≤ 500 | ≤ 500 | ≤ 500 | ≤ 500 | ≤ 500 | ≤ 500 | ≤ 500 | 1.9 | ≤ 500 | 500 to 2000 | ≤ 500 | ≤ 500 | 500 to 2000

Reference: US20220087996A1, “Histone acetylase p300 inhibitor and use thereof” (HINOVA PHARMACEUTICALS INC., priority 2018, published 2022)
